In patent US20260042731A1, “(2,4-DICHLOROPHENOXY)ACETIC ACID ANALOGS” (CORTEVA AGRISCIENCE LLC, priority 2022, published 2026):
Where two headings read alike, the source gives them in different places.

Tests used:
[1] = system: Abutilon theophrasti (ABUTH), velvetleaf; test: Postemergence herbicide evaluation, growth of Abutilon theophrasti (ABUTH); type: in vivo; settings: Abutilon theophrasti, post-emergence, percent reduction in plant size vs untreated control, read-out: AVE. ABUTH; for pest or weed control at 280 g/ha: 280 g ae/ha; for pest or weed control at 560 g/ha: 560 g ae/ha
[2] = system: Chenopodium album (CHEAL), common lambsquarters; test: Postemergence herbicide evaluation, growth of Chenopodium album (CHEAL); type: in vivo; settings: Chenopodium album, post-emergence, percent reduction in plant size vs untreated control, read-out: Ave. CHEAL; for pest or weed control at 280 g/ha: 280 g ae/ha; for pest or weed control at 560 g/ha: 560 g ae/ha
[3] = system: weeds ABUTH, AMATA, AMBEL, CHEAL, ERICA; test: Postemergence herbicide evaluation, overall average % weed control across ABUTH, AMATA, AMBEL, CHEAL and ERICA; type: in vivo; settings: post-emergence, average over five weeds, read-out: Overall Ave % Weed Control; for pest or weed control at 280 g/ha: 280 g ae/ha; for pest or weed control at 560 g/ha: 560 g ae/ha
[4] = Volatility of compounds measured by thermogravimetric analysis (TGA); type: physicochemical
[5] = system: glyphosate resistant Conyza canadensis (L.) (ERICA), horseweed; test: Postemergence herbicide evaluation, growth of Conyza canadensis (ERICA); type: in vivo; settings: Erigeron canadensis, post-emergence, percent reduction in plant size vs untreated control, read-out: Ave. ERICA; for pest or weed control at 280 g/ha: 280 g ae/ha; for pest or weed control at 560 g/ha: 560 g ae/ha
[6] = system: Amaranthus rudis (AMATA), tall water hemp; test: Postemergence herbicide evaluation, growth of Amaranthus rudis (AMATA); type: in vivo; settings: Amaranthus tuberculatus, post-emergence, percent reduction in plant size vs untreated control, read-out: Ave. AMATA; for pest or weed control at 280 g/ha: 280 g ae/ha; for pest or weed control at 560 g/ha: 560 g ae/ha
[7] = system: Ambrosia artemisiifolia (AMBEL), common ragweed; test: Postemergence herbicide evaluation, growth of Ambrosia artemisiifolia (AMBEL); type: in vivo; settings: Ambrosia artemisiifolia, post-emergence, percent reduction in plant size vs untreated control, read-out: AVE. AMBEL; for pest or weed control at 280 g/ha: 280 g ae/ha; for pest or weed control at 560 g/ha: 560 g ae/ha

| SMILES | pest or weed control at 280 g/ha ([1]; 168 h, 7 DAA) [%] | pest or weed control at 560 g/ha ([1]; 168 h, 7 DAA) [%] | pest or weed control at 280 g/ha ([1]; 336 h, 14 DAA) [%] | pest or weed control at 560 g/ha ([1]; 336 h, 14 DAA) [%] | pest or weed control at 560 g/ha ([1]; 504 h, 21 DAA) [%] | pest or weed control at 280 g/ha ([2]; 168 h, 7 DAA) [%] | pest or weed control at 560 g/ha ([2]; 168 h, 7 DAA) [%] | pest or weed control at 280 g/ha ([2]; 336 h, 14 DAA) [%] | pest or weed control at 560 g/ha ([2]; 336 h, 14 DAA) [%] | pest or weed control at 560 g/ha ([2]; 504 h, 21 DAA) [%] | pest or weed control at 280 g/ha ([3]; 168 h, 7 DAA) [%] | pest or weed control at 560 g/ha ([3]; 168 h, 7 DAA) [%] | pest or weed control at 280 g/ha ([3]; 336 h, 14 DAA) [%] | pest or weed control at 560 g/ha ([3]; 336 h, 14 DAA) [%] | pest or weed control at 560 g/ha ([3]; 504 h, 21 DAA) [%] | pest or weed control at 280 g/ha ([5]; 168 h, 7 DAA) [%] | pest or weed control at 560 g/ha ([5]; 168 h, 7 DAA) [%] | pest or weed control at 280 g/ha ([5]; 336 h, 14 DAA) [%] | pest or weed control at 560 g/ha ([5]; 336 h, 14 DAA) [%] | pest or weed control at 560 g/ha ([5]; 504 h, 21 DAA) [%] | other results |
| --- | --- | --- | --- | --- | --- | --- | --- | --- | --- | --- | --- | --- | --- | --- | --- | --- | --- | --- | --- | --- | --- |
| Cc1cc(NC(=O)COc2ccc(Cl)cc2Cl)n(C)n1 [Compound D14] | 37.5 | 50 | 45 | 52.5 | 65 | 72.5 | 75 | 96.5 | 90 | 100 | 69.5 | 69.5 | 79.6 | 85 | 91.5 | 82.5 | 72.5 | 94 | 94 | 100 | pest or weed control at 280 g/ha ([1]; 504 h, 21 DAA): 52.5%; pest or weed control at 280 g/ha ([2]; 504 h, 21 DAA): 95%; pest or weed control at 280 g/ha ([3]; 504 h, 21 DAA): 83.7%; TGA Data (rate of weight loss, volatility) [4]: 0.01234 µg/min; pest or weed control at 280 g/ha ([5]; 504 h, 21 DAA): 98.5%; pest or weed control at 280 g/ha ([6]; 168 h, 7 DAA): 75%; pest or weed control at 560 g/ha ([6]; 168 h, 7 DAA): 75%; pest or weed control at 280 g/ha ([6]; 336 h, 14 DAA): 90%; pest or weed control at 560 g/ha ([6]; 336 h, 14 DAA): 91.5%; pest or weed control at 280 g/ha ([6]; 504 h, 21 DAA): 72.5%; pest or weed control at 560 g/ha ([6]; 504 h, 21 DAA): 92.5%; pest or weed control at 280 g/ha ([7]; 168 h, 7 DAA): 80%; pest or weed control at 560 g/ha ([7]; 168 h, 7 DAA): 75%; pest or weed control at 280 g/ha ([7]; 336 h, 14 DAA): 72.5%; pest or weed control at 560 g/ha ([7]; 336 h, 14 DAA): 97%; pest or weed control at 280 g/ha ([7]; 504 h, 21 DAA): 100%; pest or weed control at 560 g/ha ([7]; 504 h, 21 DAA): 100% |
| O=C(COc1ccc(Cl)cc1Cl)NOC1CCCCO1 (centres unmarked) [Compound D15] | 70 | 80 | 87.5 | 94.5 | 99.5 | 77.5 | 82.5 | 94 | 97.5 | 97.5 | 76 | 83.5 | 89.2 | 94.9 | 98.9 | 72.5 | 80 | 97 | 95 | 100 | pest or weed control at 286 g/ha ([1]; 504 h, 286 g ae/ha, 21 DAA): 99.5%; pest or weed control at 286 g/ha ([2]; 504 h, 286 g ae/ha, 21 DAA): 85%; pest or weed control at 286 g/ha ([3]; 504 h, 286 g ae/ha, 21 DAA): 91.3%; TGA Data (rate of weight loss, volatility) ([4]; value marked *: decomposition of the material was observed): 6.9* μg/min; pest or weed control at 286 g/ha ([5]; 504 h, 286 g ae/ha, 21 DAA): 99.5%; pest or weed control at 280 g/ha ([6]; 168 h, 7 DAA): 75%; pest or weed control at 560 g/ha ([6]; 168 h, 7 DAA): 85%; pest or weed control at 280 g/ha ([6]; 336 h, 14 DAA): 85%; pest or weed control at 560 g/ha ([6]; 336 h, 14 DAA): 95%; pest or weed control at 286 g/ha ([6]; 504 h, 286 g ae/ha, 21 DAA): 72.5%; pest or weed control at 560 g/ha ([6]; 504 h, 21 DAA): 97.5%; pest or weed control at 280 g/ha ([7]; 168 h, 7 DAA): 85%; pest or weed control at 560 g/ha ([7]; 168 h, 7 DAA): 90%; pest or weed control at 280 g/ha ([7]; 336 h, 14 DAA): 82.5%; pest or weed control at 560 g/ha ([7]; 336 h, 14 DAA): 92.5%; pest or weed control at 286 g/ha ([7]; 504 h, 286 g ae/ha, 21 DAA): 100%; pest or weed control at 560 g/ha ([7]; 504 h, 21 DAA): 100% |
